In patent US20090258786A1, “Controlled release agricultural products and processes for making the same” (priority 2000, published 2009):

Assay: Controlled release soil test (irrigated soil burial test)
Type: physicochemical
From the text: To measure the relative solubilities of the products in soil, an irrigated soil burial test was devised such that granules could be retrieved for measurement of their nitrogen content. The following is a description of the test.
Procedure for Controlled Release Soil Test
1. Screen the sample to obtain −6+7 Tyler mesh granules for the test.
4. Place 300 g of potting soil with a 40% moisture content into the container and record the weight.
7. Spread 5 grams of −6+7 Tyler mesh granules over the screen in a single layer and record the weight.
13. Mist 4 g of water into each container and immediately place the lid on container and seal.
14. After the fertilizer granules have been submerged in a humid soil environment for the allotted time (9 hours, 24 hours, and 3 days), the 150 g of soil is removed from the container.
18. Place the fertilizer granules in a laboratory oven to dry at low temperature (50° C.) for 13 hours.
20. Place the dry fertilizer sample into a 125 mL plastic sample bottle containing 20 g of de-ionized water.
21. Allow the sample to dissolve for 3 hours.
22. Place approximately 1 ml aliquot of the sample solution onto the sample stage of a refractometer(e.g., Abbe Refractometer).
23. Record the refractive index and temperature of the solution.
24. Calculate the percent urea retained from the original fertilizer sample.

time in which particles went into solution, soil test: ≤ 9 h
SMILES: NC(N)=O [plain urea, urea]
